Reference: patent US20050163707A1, “Cancer treatment” (priority 2002, published 2005)

Legend:
[1] = tested on: HT1376 bladder tumour xenografts; assay: Tumour volume tripling time of HT1376 xenografts in nude mice after 90Y-hHMFG1 radioimmunotherapy and/or chemotherapy; format: in vivo, mouse (human tumour xenograft); settings: for T-C value: Cisplatin combined with 1.2 MBq radioimmunotherapy
Experimental: (§1) The human bladder tumour cell line, HT1376, and the human colon tumour cell line HT29 expressing polymorphic epithelial mucin (PEM) were cultured in RPMI 1640 tissue culture medium containing 100 U·ml^−1 penicillin and 100 μg·ml^−1 streptomycin, supplemented with 10% foetal calf serum in a humidified atmosphere of 5% carbon dioxide in air. HT1376 is a human bladder carcinoma cell line obtained from the European Collection of Animal Cell Cultures (ECACC no. 87032402). HT29 is human colon carcinoma cell line obtained from European Collection of Animal Cell Cultures (ECACC no. 91072201).
(§2) The fully humanised version of the anti-PEM antibody, HMFG1, was produced by Lonza, Slough, UK. This humanised HMFG1 (hHMFG1) was conjugated with the chelating agent […] by BioInvent, Sweden.
(§3) CITC-DTPA-conjugated hHMFG1 was radiolabelled with ^90Y in acetate buffer (pH 5.5) at room temperature for 30 minutes. Disodium EDTA was added to the reaction mixture such that the final EDTA concentration was 5 mM and left to stand at room temperature for approximately 10 min. The radiolabelled protein was then purified by size exclusion chromatography and the protein-containing fractions pooled.
(§4) Female MF1 athymic nude (nu/nu) mice were used throughout these studies. The mice were bred at the Biological Research Facility of St. George's Hospital Medical School and were housed in sterile filter cages and maintained on irradiated diet and sterile water. Tumours were established by subcutaneous injection of 5×10^6 cells in the right flank.
(§5) Humanised HMFG1 anti-PEM antibody (previously conjugated with the chelating agent CITC-DTPA) was radiolabelled with yttrium-90 (^90Y) to a specific activity of approximately 1-2 MBq per 10 μg. Mice received approximately 10 μg of protein by intravenous injection.
(§6) For combination therapy, the drug and radioimmunotherapy (RIT) were given by sequential injections into the two lateral tail veins. The drug was given either 24 h before or 24 h after the RIT. In the case of Cisplatin, this was also given at the same time as the RIT. Control mice were untreated.
(§7) Approximately three weeks after tumour inoculation, when the tumours were around 0.2 cm^3 in volume (7-8 mm in diameter), mice were divided into treatment groups of 7-8 mice each. […] Mice were injected with various doses of ^90Y-labelled hHMFG1 radioimmunotherapy (10-20 μg, 1.2-2.0 MBq) either alone or in combination with the test drug given either 24 h before or 24 h after radioimmunotherapy, or with chemotherapy or chemotherapy vehicle alone. One group of mice was left untreated as a control on some occasions when experimental animals were treated. Tumour diameters (d1, d2 and d3) were measured twice weekly in three orthogonal directions using a vernier calliper and the tumour volume (v) calculated according to the formula for an ellipsoid: [formula]
(§8) Relative tumour volume (the volume of each tumour divided by the tumour volume on the day of treatment) was calculated to minimise the effect of variation in treatment volume of the individual tumours. The end-point was defined as time for the relative tumour volume to reach 3.
(§9) The Wilcoxon rank sum test was used to compare the groups of mice receiving the various treatment protocols. A p-value <0.05 was considered to be significant.

[2] = tested on: mouse model of breast cancer; settings: cited from earlier work
[3] = tested on: HT29 colon tumour xenografts; assay: Tumour volume tripling time of HT29 xenografts in nude mice after 90Y-hHMFG1 radioimmunotherapy and/or chemotherapy; format: in vivo, mouse (human tumour xenograft); settings: for Median volume tripling time / T-C (treated minus control tripling time): 90Y-hHMFG1 1.4 MBq, combinations 24 h apart; for Most effective treatment schedule / Effect of drug combined with radioimmunotherapy (in words): Table 2; for Most effective treatment schedule: drug combined with 90Y-hHMFG1 radioimmunotherapy
Experimental: as §1, §2, §3, §4, §5, §6, §7, §8, §9

[4] = Table 2, HT1376 Cisplatin, Observer 1, control 21.9, 90Y-hHMFG1 1.2 MBq, Cisplatin 10 mg/kg, drug at -24 h, 0 h or +24 h relative to RIT
[5] = Table 2, HT1376 Cisplatin, Observer 1, control 21.9, 90Y-hHMFG1 1.4 MBq, Cisplatin 2 mg/kg, combination at 0 h
[6] = Table 2, HT1376 Cisplatin, Observer 1, control 21.9, 90Y-hHMFG1 1.4 MBq, Cisplatin 10 mg/kg, combination drug -24 h
[7] = Table 1, group with Control (25-26) 19.0, each drug 10 mg/kg i.v. alone
[8] = Table 1, group with Control (18-19) 17.9, Taxotere 10 mg/kg i.v., 90Y-hHMFG1 1.2 MBq i.v., combination of both
[9] = Table 2, HT1376 Taxotere, Observer 1, control 21.9, 90Y-hHMFG1 1.2 MBq, Taxotere 10 mg/kg, combinations 24 h apart
[10] = Table 2, HT29 cyclophosphamide, Observer 1, control 10.2, cyclo 200 mg/kg
[11] = Table 2, HT29 cyclophosphamide, Observer 2, control 10.7, cyclo 200 mg/kg
[12] = drug given after the 90Y-hHMFG1 radioimmunotherapy
[13] = Table 2, HT29 gemcitabine, Observer 1, control 8.8, gemcitabine 240 mg/kg
[14] = Table 2, HT29 gemcitabine, Observer 2, control 9.5, gemcitabine 240 mg/kg
[15] = Table 2, HT29 vincristine, Observer 1, control 10.2, vincristine 2 mg/kg

## N.N.[Cl][Pt][Cl] [Cisplatin]
[1]; [4]
  Median volume tripling time: 28.8 days
  T-C (treated minus control tripling time): 6.9 days
[1]; [5]
  Median volume tripling time: 28.9 days
  T-C (treated minus control tripling time): 7.0 days
[1]; [6]
  Median volume tripling time: 28.8 days
  T-C (treated minus control tripling time): 6.9 days
[1]; Table 2, 1.2 MBq 90Y-hHMFG1 alone plus Cisplatin 10 mg/kg alone
  T-C, combined addition of the drugs administered individually: 7.9
[1]; Table 2, first dosage regime (drug -24 h per Table 2)
  T-C value: 44
[1]; Table 2, second dosage regime (0 h per Table 2)
  T-C value: 36.5
[1]; Table 2, third dosage regime (drug +24 h per Table 2)
  T-C value: 15.5
[1]; Table 2, drug combined with 90Y-hHMFG1 radioimmunotherapy
  Most effective treatment schedule: administer the drug 24 hours before the radioimuunotherapy
[1]; Table 2, with 90Y-hHMFG1, no matter the order of administering
  Effect of drug combined with radioimmunotherapy (in words): synergistic effect

## COc1cccc2c1C(=O)c1c(O)c3c(c(O)c1C2=O)C[C@@](O)(C(=O)CO)C[C@@H]3O[C@H]1C[C@H](N)[C@H](O)[C@H](C)O1 [Dox]
[1]; [7]
  T-C (treated minus control tripling time): 33.9 days
[1]; in vivo
  Median volume tripling time: 52.9 days

## CC(=O)O[C@H]1C(=O)[C@@]2(C)[C@H]([C@H](OC(=O)c3ccccc3)[C@]3(O)C[C@H](OC(=O)[C@H](O)[C@@H](NC(=O)c4ccccc4)c4ccccc4)C(C)=C1C3(C)C)[C@]1(OC(C)=O)CO[C@@H]1C[C@@H]2O [Taxol ®, paclitaxel]
[1]; [7]
  Median volume tripling time: 30.2 days
  T-C (treated minus control tripling time): 11.2 days
[2]
  Optimum time for Taxol administration after 90Y-ChL6: 6 to 24 h

## CC(=O)O[C@@]12CO[C@@H]1C[C@H](O)[C@@]1(C)C(=O)[C@H](O)C3=C(C)[C@@H](OC(=O)[C@H](O)[C@@H](NC(=O)OC(C)(C)C)c4ccccc4)C[C@@](O)([C@@H](OC(=O)c4ccccc4)[C@H]21)C3(C)C [Taxotere ®, Docetaxel]
[1]; [8]
  Median volume tripling time: 43.8 days
  T-C (treated minus control tripling time): 25.9 days
[1]; [7]
  Median volume tripling time: 41.2 days
  T-C (treated minus control tripling time): 22.2 days
[1]; [9]
  Median volume tripling time: 43.5 days
  T-C (treated minus control tripling time): 21.6 days

## O=P1(N(CCCl)CCCl)NCCCO1 (stereo not shown) [cyclo, Cyclophosphamide]
[3]; [10]
  Median volume tripling time: 15.5 days
  T-C (treated minus control tripling time): 5.3 days
[3]; [11]
  Median volume tripling time: 14.1 days
  T-C (treated minus control tripling time): 3.4 days
[3]
  Most effective treatment schedule: most effective when given after the radioimmunotherapy
[3]; [12]
  Effect of drug combined with radioimmunotherapy (in words): synergistic effect over the mere additive effect

## Nc1ccn([C@@H]2O[C@H](CO)[C@@H](O)C2(F)F)c(=O)n1 [gemcitabine, Gemcitabine]
[3]; [13]
  Median volume tripling time: 15.4 days
  T-C (treated minus control tripling time): 6.6 days
[3]; [14]
  Median volume tripling time: 12.8 days
  T-C (treated minus control tripling time): 3.3 days
[3]; drug and 90Y-hHMFG1 radioimmunotherapy given in combination
  Effect of drug combined with radioimmunotherapy (in words): overall increase in T-C values

## CC[C@]1(O)C[C@H]2CN(CCc3c([nH]c4ccccc34)[C@@](C(=O)OC)(c3cc4c(cc3OC)N(C=O)[C@H]3[C@@](O)(C(=O)OC)[C@H](OC(C)=O)[C@]5(CC)C=CCN6CC[C@]43[C@@H]65)C2)C1 [vincristine, Vincristine]
[3]; [15]
  Median volume tripling time: 13.4 days
  T-C (treated minus control tripling time): 3.2 days
[3]; Table 2, HT29 vincristine, Observer 2, control 10.7, vincristine 2 mg/kg
  T-C (treated minus control tripling time): 4.0 days
[3]; drug administered before the 90Y-hHMFG1 radioimmunotherapy
  Effect of drug combined with radioimmunotherapy (in words): also effective when administered before the radioimmunotherapy although to a slightly lesser extent
[3]
  Most effective treatment schedule: most effective when given after the radioimmunotherapy
[3]; [12]
  Effect of drug combined with radioimmunotherapy (in words): synergistic effect over the mere additive effect
